Test results taken from PubChem BioAssay AID1259407 (Chemical Carcinogenesis Research Information System (CCRIS), 2018).
Active and inactive are the calls of the source. No rule for the calls is given here.

Test system: CCRIS mutagenicity, Ames/micronucleus/aberration tests
Assay: CCRIS mutagenicity studies

Measured: mutagenic call

CN1CCC(CN2c3ccccc3Sc3ccccc32)C1 (stereo not drawn)
inactive: End Point: IN VITRO CHROMOSOMAL ABERRATIONS, Test System: CHINESE HAMSTER OVARY CELLS, Metabolic Activation: NONE inactive; negative | End Point: IN VITRO CHROMOSOMAL ABERRATIONS, Test System: CHINESE HAMSTER OVARY CELLS, Metabolic Activation: RAT, LIVER, S-9, AROCLOR 1254 inactive; negative | Test System: AMES SALMONELLA TYPHIMURIUM, Strain/Indicator: TA97, Metabolic Activation: HAMSTER, LIVER, S-9, AROCLOR 1254 (10 OR 30%), Method: PREINCUBATION inactive; negative | Test System: AMES SALMONELLA TYPHIMURIUM, Strain/Indicator: TA97, Metabolic Activation: NONE, Method: PREINCUBATION inactive; negative | Test System: AMES SALMONELLA TYPHIMURIUM, Strain/Indicator: TA97, Metabolic Activation: RAT, LIVER, S-9, AROCLOR 1254 (10 OR 30%), Method: PREINCUBATION inactive; negative | Test System: AMES SALMONELLA TYPHIMURIUM, Strain/Indicator: TA98, Metabolic Activation: HAMSTER, LIVER, S-9, AROCLOR 1254 (10%), Method: PREINCUBATION inactive; negative | Test System: AMES SALMONELLA TYPHIMURIUM, Strain/Indicator: TA98, Metabolic Activation: HAMSTER, LIVER, S-9, AROCLOR 1254 (30%), Method: PREINCUBATION inactive; negative | Test System: AMES SALMONELLA TYPHIMURIUM, Strain/Indicator: TA98, Metabolic Activation: NONE, Method: PREINCUBATION inactive; negative | Test System: AMES SALMONELLA TYPHIMURIUM, Strain/Indicator: TA98, Metabolic Activation: RAT, LIVER, S-9, AROCLOR 1254 (10%), Method: PREINCUBATION inactive; negative | Test System: AMES SALMONELLA TYPHIMURIUM, Strain/Indicator: TA98, Metabolic Activation: RAT, LIVER, S-9, AROCLOR 1254 (30%), Method: PREINCUBATION inactive; negative | Test System: AMES SALMONELLA TYPHIMURIUM, Strain/Indicator: TA100, Metabolic Activation: HAMSTER, LIVER, S-9, AROCLOR 1254 (10%), Method: PREINCUBATION inactive; negative | Test System: AMES SALMONELLA TYPHIMURIUM, Strain/Indicator: TA100, Metabolic Activation: HAMSTER, LIVER, S-9, AROCLOR 1254 (30%), Method: PREINCUBATION inactive; negative | Test System: AMES SALMONELLA TYPHIMURIUM, Strain/Indicator: TA100, Metabolic Activation: NONE, Method: PREINCUBATION inactive; negative | Test System: AMES SALMONELLA TYPHIMURIUM, Strain/Indicator: TA100, Metabolic Activation: RAT, LIVER, S-9, AROCLOR 1254 (10%), Method: PREINCUBATION inactive; negative | Test System: AMES SALMONELLA TYPHIMURIUM, Strain/Indicator: TA100, Metabolic Activation: RAT, LIVER, S-9, AROCLOR 1254 (30%), Method: PREINCUBATION inactive; negative | Test System: AMES SALMONELLA TYPHIMURIUM, Strain/Indicator: TA1535, Metabolic Activation: HAMSTER, LIVER, S-9, AROCLOR 1254 (10%), Method: PREINCUBATION inactive; negative | Test System: AMES SALMONELLA TYPHIMURIUM, Strain/Indicator: TA1535, Metabolic Activation: HAMSTER, LIVER, S-9, AROCLOR 1254 (30%), Method: PREINCUBATION inactive; negative | Test System: AMES SALMONELLA TYPHIMURIUM, Strain/Indicator: TA1535, Metabolic Activation: NONE, Method: PREINCUBATION inactive; negative | Test System: AMES SALMONELLA TYPHIMURIUM, Strain/Indicator: TA1535, Metabolic Activation: RAT, LIVER, S-9, AROCLOR 1254 (10%), Method: PREINCUBATION inactive; negative | Test System: AMES SALMONELLA TYPHIMURIUM, Strain/Indicator: TA1535, Metabolic Activation: RAT, LIVER, S-9, AROCLOR 1254 (30%), Method: PREINCUBATION inactive; negative | Test System: AMES SALMONELLA TYPHIMURIUM, Strain/Indicator: TA1537, Metabolic Activation: HAMSTER, LIVER, S-9, AROCLOR 1254 (10%), Method: PREINCUBATION inactive; negative | Test System: AMES SALMONELLA TYPHIMURIUM, Strain/Indicator: TA1537, Metabolic Activation: NONE, Method: PREINCUBATION inactive; negative | Test System: AMES SALMONELLA TYPHIMURIUM, Strain/Indicator: TA1537, Metabolic Activation: RAT, LIVER, S-9, AROCLOR 1254 (10%), Method: PREINCUBATION inactive; negative
